Reference: ChEMBL document CHEMBL1128147, “Mechanistic support for the stepwise process for inactivation of class A -lactamases by clavulanate” (Bioorg Med Chem Lett, 1995)

How the values were obtained:
[1] = Partition ratio between Kcat (for beta lactamase) and Kinact (for beta lactamase) was determined
[2] = Partition ratio between Kcat and Kinact was determined
[3] = molecular target: Beta-lactamase (Enterobacter cloacae) (UniProt P05364)
Description: K2 for inactivation of TEM-1 beta-lactamase

[4] = molecular target: Beta-lactamase (Enterobacter cloacae) (UniProt P05364); remark: listed apart in the source
Description: K3 for inactivation of TEM-1 beta-lactamase

[5] = molecular target: Beta-lactamase (Enterobacter cloacae) (UniProt P05364); remark: listed apart in the source
Description: Ks for inactivation of TEM-1 beta-lactamase

[6] = molecular target: Beta-lactamase (Enterobacter cloacae) (UniProt P05364); remark: listed apart in the source
Description: Kcat for inactivation of TEM-1 beta-lactamase

[7] = test system: Beta-lactamase TEM (Escherichia coli); assay: Effect on rate of recovery of TEM-2 beta lactamase from transient inhibition

Chain of Beta-lactamase (Enterobacter cloacae) (P05364 21-381 limits assumed): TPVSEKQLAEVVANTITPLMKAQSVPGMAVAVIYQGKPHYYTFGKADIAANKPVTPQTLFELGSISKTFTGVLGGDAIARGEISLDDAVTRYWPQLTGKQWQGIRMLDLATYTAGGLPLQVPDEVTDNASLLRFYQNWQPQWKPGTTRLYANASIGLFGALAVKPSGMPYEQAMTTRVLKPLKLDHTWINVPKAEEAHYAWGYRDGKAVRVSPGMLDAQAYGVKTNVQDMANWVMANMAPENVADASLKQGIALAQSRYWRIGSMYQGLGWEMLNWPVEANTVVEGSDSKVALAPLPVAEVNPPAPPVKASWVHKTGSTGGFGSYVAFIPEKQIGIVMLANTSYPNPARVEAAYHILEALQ

C/C=C1\O[C@@H]2CC(=O)N2[C@H]1C(=O)O
Ratio [1]: 390

O=C(O)[C@H]1C(CCO)O[C@@H]2CC(=O)N21 (some centres not stated)
Ratio [2]: 3.7e+06 | K2 [3]: 42 s⁻¹ | K3 [4]: 10 s⁻¹ | Ks [5]: 11.6 µM | k cat [6]: 8 s⁻¹

O=C1C[C@H]2O/C(=C\CO)[C@H](CO)N12
Rate of recovery [7]: 0.002 s⁻¹
